Key:
[1] = system: Pseudomonas putida DSM 291; experiment: Bacteriostatic effect of Octenidin with BBG: turbidity after 24 h incubation; format: cell-based; parameters: key: +: Bakterienwachstum nach 24 h Inkubation; -: kein Bakterienwachstum nach 24 h Inkubation; details: no BBG
Experimental: (§1) Zur Untersuchung des Einflusses von BBG auf die bakteriostatische Wirkung wurden Bakterien 24 h mit erfindungsgemäßen Zusammensetzungen, Benzalkoniumchlorid (BAK) und Octenidin (Oct) als Bakteriostatikum enthielten, inkubiert. Wenn sich die Inkubationsmischung trübte, wurde das als Bakterienwachstum interpretiert. Zum Vergleich wurde Brillantblau R (BBR) anstelle von BBG eingesetzt. Die Ergebnisse sind in den Tabellen 1-4 wiedergegeben. Tabelle 1: Einfluss von BBG und BBR auf die bakteriostatische Wirkung von BAK gegenüber Escherichia coli (E. coli), + = Bakterienwachstum nach 24 h Inkubation, - = kein Bakterienwachstum nach 24 h Inkubation, R = Brillantblau R (BBR), G = Brillantblau G (BBG).
(§2) Gram-negative Bakterien (hier E. coli) sind widerstandsfähiger als Gram-positive Bakterien (hier Bacillus sp.) und wachsen konzentrationsabhängig. […] Tabelle 3: Einfluss von BBG auf die bakteriostatische Wirkung von Octenidin (Oct) gegenüber Gram-negativen Bakterien., + = Bakterienwachstum nach 24 h Inkubation, - = kein Bakterienwachstum nach 24 h Inkubation, BBG = Brillantblau G.

Vibrio sp. Gal12 = experiment: as above; format: cell-based; parameters: key: +: Bakterienwachstum nach 24 h Inkubation; -: kein Bakterienwachstum nach 24 h Inkubation; details: no BBG
Experimental: as §1, §2

Escherichia coli DH5α = experiment: as above; format: cell-based; parameters: key: +: Bakterienwachstum nach 24 h Inkubation; -: kein Bakterienwachstum nach 24 h Inkubation; details: no BBG
Experimental: as §1, §2

[2] = system: Clavibacter michiganensis; experiment: as above; format: cell-based; parameters: key: +: Bakterienwachstum nach 24 h Inkubation; -: kein Bakterienwachstum nach 24 h Inkubation; details: no BBG
Experimental: as §1
(§3) Tabelle 4: Einfluss von BBG auf die bakteriostatische Wirkung von Octenidin (Oct) gegenüber Gram-positiven Bakterien., + = Bakterienwachstum nach 24 h Inkubation, - = kein Bakterienwachstum nach 24 h Inkubation, +/- = geringes Wachstum nach 24 h Inkubation, BBG = Brillantblau G.

Paenibacillus sp. = experiment: as above; format: cell-based; parameters: key: +: Bakterienwachstum nach 24 h Inkubation; -: kein Bakterienwachstum nach 24 h Inkubation; details: no BBG
Experimental: as §1, §3

Bacillus megaterium = experiment: as above; format: cell-based; parameters: key: +: Bakterienwachstum nach 24 h Inkubation; -: kein Bakterienwachstum nach 24 h Inkubation; details: no BBG
Experimental: as §1, §3

Bacillus subtilis = experiment: as above; format: cell-based; parameters: key: +: Bakterienwachstum nach 24 h Inkubation; -: kein Bakterienwachstum nach 24 h Inkubation; details: no BBG
Experimental: as §1, §3

HCE-Zellen = format: cell-based, human
Experimental: Die Erfindung wird im Folgenden rein zu Veranschaulichungszwecken anhand der angehängten Figuren und von Ausführungsbeispielen näher erläutert. • Figur 1 Effekt von 0,025% BBG auf die Toxizität von unterschiedlichen Konzentrationen (in Gew.-%) von Benzalkoniumchlorid (BAK) auf HCE-Zellen (HCE = human corneal epithelium, Menschliche Hornhautepithelzellen) bei verschiedenen Einwirkdauern (5, 30, 60 min). Oben: BAK ohne BBG. Unten: BAK mit BBG. Inkubationsmedium: Phosphat-gepufferte Kochsalzlösung (PBS). • Figur 2 Effekt von BBG (in Gew.-%) in unterschiedlichen Konzentrationen auf die Toxizität von BAK bei 0,003% (oben) und 0,008% (unten). PBS = Phosphat-gepufferte Kochsalzlösung; BBS = balanced salt solution (ausgeglichene Salzlösung). • Figur 3 Effekt von BBG (0,025 Gew.-%) auf die Toxizität von Octenidindihydrochlorid (Oct) in unterschiedlichen Konzentrationen (in Gew.-%) nach 5 min Inkubation (oben) und 30 min Inkubation (unten). Octenidin alone = Octenidin allein (ohne BBG). • Figur 4 Effekt von BBG (0,025 %) auf die Toxizität von Cetylpyridiniumchlorid (CPC) in unterschiedlichen Konzentrationen (in Gew.-%) nach 5 min Inkubation (oben) und 30 min Inkubation (unten). CPC alone = Cetylpyridiniumchlorid allein (ohne BBG). • Figur 5 Effekt von BBG (0,025 %) auf die Toxizität von Chlorhexidin (CHex) in Form von Chlorhexidindigluconat in unterschiedlichen Konzentrationen (in Gew.-%) nach 5 min Inkubation (oben) und 30 min Inkubation (unten). Chlorhexidin alone = Chlorhexidin allein (ohne BBG)
Figur 1 zeigt die Wirkung von BBG 0,025% Gew.-% auf die Toxizität von unterschiedlichen Konzentrationen (in Gew.-%) von Benzalkoniumchlorid (BAK) auf HCE-Zellen (HCE = human corneal epithelium, Menschliche Hornhautepithelzellen) bei verschiedenen Einwirkdauern (5, 30, 60 min).
Figur 2 zeigt die Wirkung von BBG (in Gew.-%) in unterschiedlichen Konzentrationen und zwei unterschiedlichen Medien (PBS und BSS) auf die Toxizität von BAK bei 0,003% (oben) und 0,008% (unten) bei HCE-Zellen. Die Schutzwirkung von BBG bei niedrigeren BAK-Konzentrationen setzt schon bei 0,003% BBG ein. Bei höheren BAK-Konzentrationen sind 0,015% notwendig.
Figur 3 zeigt die Wirkung von BBG (0,025 Gew.-%) auf die Toxizität von Octenidin (Oct) Form von Octenidindihydrochlorid in unterschiedlichen Konzentrationen (in Gew.-%) nach 5 min Inkubation (oben) und 30 min Inkubation (unten). Octenidin alone = Octenidin allein (ohne BBG). […] BBG (0,025 Gew.-%) kann diesen Effekt bei 5 min Inkubation (links) bis zu einer Oct-Konzentration von 0,01% (der höchsten getesteten Konzentration) verhindern. Bei 30 min Einwirkzeit (rechts) ist erst ab 0,009 Gew.-% Oct der Schutz nicht mehr maximal.
Die Figuren 4 und 5 zeigen die Wirkung von BBG (0,025 Gew.-%) auf die Toxizität von Cetylpyridiniumchlorid (CPC, Fig. 4) und Chlorhexidin (CHex in Form von Chlorhexidindigluconat, Fig. 5) in unterschiedlichen Konzentrationen (in Gew.-%) nach 5 min Inkubation (jeweils oben) und 30 min Inkubation (jeweils unten).

Bacillus sp. = experiment: Bacteriostatic effect of BAK with BBG/BBR: turbidity after 24 h incubation; format: cell-based; parameters: key to Bakterienwachstum nach 24 h Inkubation: +: Bakterienwachstum nach 24 h Inkubation; -: kein Bakterienwachstum nach 24 h Inkubation
Experimental: as §1
Tabelle 2: Einfluss von BBG und BBR auf die bakteriostatische Wirkung von BAK gegenüber Bacillus sp., + = Bakterienwachstum nach 24 h Inkubation, - = kein Bakterienwachstum nach 24 h Inkubation, R = Brillantblau R (BBR), G = Brillantblau G (BBG).

[3] = system: Escherichia coli (E. coli); experiment: as above; format: cell-based; parameters: key to Bakterienwachstum nach 24 h Inkubation: +: Bakterienwachstum nach 24 h Inkubation; -: kein Bakterienwachstum nach 24 h Inkubation
Experimental: as §1

Compound: CCCCCCCCN=c1ccn(CCCCCCCCCCn2ccc(=NCCCCCCCC)cc2)cc1 [Octenidin, reference compound]
- Bakterienwachstum nach 24 h Inkubation ([1]; Octenidin 0,01% alone): -
- Bakterienwachstum nach 24 h Inkubation ([1]; Octenidin 0,002% alone): -
- Bakterienwachstum nach 24 h Inkubation ([1]; Octenidin 0,003% alone): -
- Bakterienwachstum nach 24 h Inkubation ([1]; Octenidin 0,005% alone): -
- Bakterienwachstum nach 24 h Inkubation ([1]; Octenidin 0,007% alone): -
- Bakterienwachstum nach 24 h Inkubation ([1]; Octenidin 0,009% alone): -
- Bakterienwachstum nach 24 h Inkubation (Vibrio sp. Gal12; Octenidin 0,01% alone): -
- Bakterienwachstum nach 24 h Inkubation (Vibrio sp. Gal12; Octenidin 0,002% alone): -
- Bakterienwachstum nach 24 h Inkubation (Vibrio sp. Gal12; Octenidin 0,003% alone): -
- Bakterienwachstum nach 24 h Inkubation (Vibrio sp. Gal12; Octenidin 0,005% alone): -
- Bakterienwachstum nach 24 h Inkubation (Vibrio sp. Gal12; Octenidin 0,007% alone): -
- Bakterienwachstum nach 24 h Inkubation (Vibrio sp. Gal12; Octenidin 0,009% alone): -
- Bakterienwachstum nach 24 h Inkubation (Escherichia coli DH5α; Octenidin 0,01% alone): -
- Bakterienwachstum nach 24 h Inkubation (Escherichia coli DH5α; Octenidin 0,002% alone): -
- Bakterienwachstum nach 24 h Inkubation (Escherichia coli DH5α; Octenidin 0,003% alone): -
- Bakterienwachstum nach 24 h Inkubation (Escherichia coli DH5α; Octenidin 0,005% alone): -
- Bakterienwachstum nach 24 h Inkubation (Escherichia coli DH5α; Octenidin 0,007% alone): -
- Bakterienwachstum nach 24 h Inkubation (Escherichia coli DH5α; Octenidin 0,009% alone): -
- Bakterienwachstum nach 24 h Inkubation ([2]; Octenidin 0,01% alone): -
- Bakterienwachstum nach 24 h Inkubation ([2]; Octenidin 0,002% alone): -
- Bakterienwachstum nach 24 h Inkubation ([2]; Octenidin 0,003% alone): -
- Bakterienwachstum nach 24 h Inkubation ([2]; Octenidin 0,005% alone): -
- Bakterienwachstum nach 24 h Inkubation ([2]; Octenidin 0,007% alone): -
- Bakterienwachstum nach 24 h Inkubation ([2]; Octenidin 0,009% alone): -
- Bakterienwachstum nach 24 h Inkubation (Paenibacillus sp.; Octenidin 0,01% alone): -
- Bakterienwachstum nach 24 h Inkubation (Paenibacillus sp.; Octenidin 0,002% alone): -
- Bakterienwachstum nach 24 h Inkubation (Paenibacillus sp.; Octenidin 0,003% alone): -
- Bakterienwachstum nach 24 h Inkubation (Paenibacillus sp.; Octenidin 0,005% alone): -
- Bakterienwachstum nach 24 h Inkubation (Paenibacillus sp.; Octenidin 0,007% alone): -
- Bakterienwachstum nach 24 h Inkubation (Paenibacillus sp.; Octenidin 0,009% alone): -
- Bakterienwachstum nach 24 h Inkubation (Bacillus megaterium; Octenidin 0,01% alone): -
- Bakterienwachstum nach 24 h Inkubation (Bacillus megaterium; Octenidin 0,002% alone): -
- Bakterienwachstum nach 24 h Inkubation (Bacillus megaterium; Octenidin 0,003% alone): -
- Bakterienwachstum nach 24 h Inkubation (Bacillus megaterium; Octenidin 0,005% alone): -
- Bakterienwachstum nach 24 h Inkubation (Bacillus megaterium; Octenidin 0,007% alone): -
- Bakterienwachstum nach 24 h Inkubation (Bacillus megaterium; Octenidin 0,009% alone): -
- Bakterienwachstum nach 24 h Inkubation (Bacillus subtilis; Octenidin 0,01% alone): -
- Bakterienwachstum nach 24 h Inkubation (Bacillus subtilis; Octenidin 0,002% alone): -
- Bakterienwachstum nach 24 h Inkubation (Bacillus subtilis; Octenidin 0,003% alone): -
- Bakterienwachstum nach 24 h Inkubation (Bacillus subtilis; Octenidin 0,005% alone): -
- Bakterienwachstum nach 24 h Inkubation (Bacillus subtilis; Octenidin 0,007% alone): -
- Bakterienwachstum nach 24 h Inkubation (Bacillus subtilis; Octenidin 0,009% alone): -
- Toxizität (Zellschädigung) (HCE-Zellen): stark zellschädigend

Compound: Benzalkoniumchlorid [BAK]
- Bakterienwachstum nach 24 h Inkubation (Bacillus sp.; BAK 0.001% alone, no dye): -
- Bakterienwachstum nach 24 h Inkubation ([3]; BAK 0,01% alone, no dye): -
- Bakterienwachstum nach 24 h Inkubation ([3]; BAK 0,001 % alone, no dye): -

Compound: Brillantblau R [BBR]
- Bakterienwachstum nach 24 h Inkubation (Bacillus sp.; 0.007% R + BAK 0.001%): -
- Bakterienwachstum nach 24 h Inkubation (Bacillus sp.; 0.007% R + BAK 0.01%): -
- Bakterienwachstum nach 24 h Inkubation (Bacillus sp.; 0.030% R, Kein BAK): +
- Einfluss auf das Bakterienwachstum (Bacillus sp.; dye alone, no BAK (rechte Spalte, Tabelle 2)): beeinflussen das Bakterienwachstum nicht
- Bakterienwachstum nach 24 h Inkubation ([3]; 0,007% R + BAK 0,01%): -
- Bakterienwachstum nach 24 h Inkubation ([3]; 0,007% R + BAK 0,001 %): +
- Bakterienwachstum nach 24 h Inkubation ([3]; 0,007% R + BAK 0,0016%): +
- Bakterienwachstum nach 24 h Inkubation ([3]; 0,007% R + BAK 0,0025%): -
- Bakterienwachstum nach 24 h Inkubation ([3]; 0,007% R + BAK 0,004%): -
- Bakterienwachstum nach 24 h Inkubation ([3]; 0,007% R + BAK 0,006%): -
- Bakterienwachstum nach 24 h Inkubation ([3]; 0,015% R + BAK 0,01%): -
- Bakterienwachstum nach 24 h Inkubation ([3]; 0,015% R + BAK 0,001 %): +
- Bakterienwachstum nach 24 h Inkubation ([3]; 0,015% R + BAK 0,0016%): +
- Bakterienwachstum nach 24 h Inkubation ([3]; 0,015% R + BAK 0,0025%): +
- Bakterienwachstum nach 24 h Inkubation ([3]; 0,015% R + BAK 0,004%): -
- Bakterienwachstum nach 24 h Inkubation ([3]; 0,015% R + BAK 0,006%): -
- Bakterienwachstum nach 24 h Inkubation ([3]; 0,030% R + BAK 0,01%): -
- Bakterienwachstum nach 24 h Inkubation ([3]; 0,030% R + BAK 0,001 %): +
- Bakterienwachstum nach 24 h Inkubation ([3]; 0,030% R + BAK 0,0016%): +
- Bakterienwachstum nach 24 h Inkubation ([3]; 0,030% R + BAK 0,0025%): +
- Bakterienwachstum nach 24 h Inkubation ([3]; 0,030% R + BAK 0,004%): +
- Bakterienwachstum nach 24 h Inkubation ([3]; 0,030% R + BAK 0,006%): +
- Bakterienwachstum nach 24 h Inkubation ([3]; 0,030% R, Kein BAK): +
- Einfluss auf die bakteriostatische Wirkung von BAK ([3]; Gram-negative Bakterien (E. coli), concentration dependent): hebt einen Teil der bakteriostatischen Wirkung auf
- Einfluss auf das Bakterienwachstum ([3]; dye alone, no BAK (rechte Spalte, Tabelle 1)): beeinflussen das Bakterienwachstum nicht
- Schutzwirkung (zelltoxische Wirkung der Bakteriostatika bei gleichzeitiger Gabe) (HCE-Zellen; dye given together with the bacteriostatic agent): zeigte sich diese Schutzwirkung nicht
